Values of other authors as cited in paper PMC12281572.

Experiment: FTIR, 4-fluorophenol as donor (the pK_BHX database, per the paper)
Conditions: CCl4; 25 C

Structure (SMILES) | pK_BHX (log10 Kf of the 1:1 H-bond complex with 4-fluorophenol, by FTIR) [log units]
CN(C)C(=S)c1ccccc1 | 1.02
CC(=O)c1ccc(C(C)=O)cc1 | 0.92
C#CCCC#C | -0.43
Cc1ccccc1C | -0.27
Cc1ccc(O)cc1 | 0.03
CC1(C)CC(=O)C=C(Cl)C1 | 1.21
COCCOC | 1.02
c1ccc(C2=NCCC2)cc1 | 1.98
CN(C)C=Nc1ccccc1Br | 1.37
N | 1.74
N#Cc1cc(Cl)cc(Cl)c1 | 0.52
CC(C)N=CN(C)C | 2.6
Cc1nc2ccccc2o1 | 1.48
CNCCNC | 2.29
CCCCCCCCSC | 0.17
N#CC1CCCCC1 | 0.97
CCOC(=O)c1ccc(N(C)C)cc1 | 1.45
C1CCNC1 | 2.59
CS(C)=O | 2.54
CCc1ccncc1 | 2.07
CC(C)(C)C(=O)N(C1CCCCC1)C1CCCCC1 | 2.06
NC12CC3CC(CC(C3)C1)C2 | 2.3
c1ccc(N2CCCCC2)cc1 | 0.68
O=c1c(-c2ccccc2)c1-c1ccccc1 | 2.3

Structure (SMILES) | pK_BHX (log10 Kf of the 1:1 H-bond complex with 4-fluorophenol, by FTIR) [log units]
CC(C)N(C(=O)C(C)(C)C)C(C)C | 2.03
CCCCC(=O)CCCC | 1.21
Cc1ccncc1C | 2.24
O=C1CCCCCCCCCC1 | 1.2
CN1CCCNC1=S | 2.0
CC(=O)c1cccc(C)c1 | 1.1
C1CNCCN1 | 2.11
COc1ccc(N=C(c2ccccc2)N(C)c2ccccc2)cc1 | 1.53
CCN(C)Cc1ccccc1 | 1.47
CC(=Nc1ccccc1)N(C)c1ccc(Br)cc1 | 1.38
CN(C)C=NC(=S)SCc1ccccc1 | 1.1
CCN(CC)CC(F)(F)F | 0.23
Cc1ccc2c(c1)CN1CN2Cc2cc(C)ccc21 | -0.26
CC(C)N(C=O)C(C)C | 2.24
N#Cc1cccc(Br)c1 | 0.65
CC(=O)N1CCCCC1 | 2.45
c1ccc2cnccc2c1 | 1.94
COc1ccc(C(=O)N(C)C)cc1 | 2.31
COc1ccncc1 | 2.13
O=c1cc(-c2ccccc2)oc2ccccc12 | 1.99
CCN(CC)C(=O)c1ccccc1 | 2.26
IC12CC3CC(CC(C3)C1)C2 | -0.19
CN(C=O)c1ccccc1 | 1.74
CN(C)c1ccc(C#N)cc1 | 1.23

Structure (SMILES) | pK_BHX (log10 Kf of the 1:1 H-bond complex with 4-fluorophenol, by FTIR) [log units]
C1CCC2OC2C1 (stereo not drawn) | 1.13
c1cc(N2CCCCC2)ccn1 | 2.68
COC(=O)OC | 0.82
N#Cc1ccc(-c2ccccc2)cc1 | 0.83
[O-][n+]1ccc(Cl)cc1 | 2.44
CN(C)C=Nc1ccccc1 | 1.9
CCOC(=O)C=Cc1ccccc1 | 1.14
CC(=Nc1ccc(Br)cc1)N(C)c1ccc(C)cc1 | 1.43
CNC(C)(C)C | 2.21
O=c1cccccc1 | 1.97
CCN(C=O)CC | 2.16
NCCCCCCN | 2.21
O=C(N(c1ccccc1)c1ccccc1)N(c1ccccc1)c1ccccc1 | 1.74
CC(C)C(=O)N(C)C | 2.26
C1CCSC1 | 0.32
NCCCN | 2.31
COC(=O)C1CC1 | 1.12
O=S1(=O)CCCC1 | 1.17
CC(=NC#N)N(C)C | 2.24
Cc1cc(C)nc(C)c1 | 2.29
N#Cc1ccccc1C(F)(F)F | 0.57
CC(C)(C)C(=O)C(C)(C)C | 0.96
CN(C)C(=O)C(F)(F)F | 1.04
Brc1ccccn1 | 1.03
